The subject of assay [1] is colon tumor cells. Briefly: Secondary transplant tumor formation after GPR49 mAb+irinotecan (Example 30). The assay is classed as in vivo, mice. Particulars: 140 day follow-up. From the text: Isolated tumor cells from control or GPR49 mAb+irinotecan treated tumors from the in vivo study outlined in Example 3 were harvested, pooled, dissociated and re-implanted in a limiting dilution secondary transplant assay to measure cancer stem cell frequency. For each treatment group, 8 mice were implanted with 10, 30, 100 cells. […]

Assay [2] has as its system CT1 primary xenograft cells. Briefly: CT1 primary xenograft, murine mAbs in combination with Irinotecan. The assay is classed as in vivo, SCID beige female mice. Conditions: Irinotecan 10 mg/kg IP once per day for the first 5 days. The procedure:
Single agent in vivo efficacy of murine antibodies 14F7.1, 18G7.1, 5B10.1, 14A8.1, 1B3.5 was evaluated in a primary colon tumor xenograft model system using CT1 primary xenograft cells. CT1 is a primary colorectal (CRC) in vivo xenograft tumor established from a fresh CRC patient tumor sample. The mutational status was determined by Ion Torrent deep sequencing to identify oncogene mutations. Approximately 5-15% of CT1 tumors express GPR49. SCID beige female mice were inoculated with CT1 tumor cells and monitored for tumor growth. Mice were randomized at day 0 into groups of 10 when mean tumor volume reached 175 mm^3. Chemotherapeutic Irinotecan was administered IP at 10 mg/kg once per day for the first 5 days. The antibodies were administered intraperitoneally (i.p.) at 15 mg/kg administered twice weekly for 4 weeks. Tumors were measured at the indicated intervals post-inoculation for total tumor volume.

Assay [3] concerns the target T1, GPR49 (Homo sapiens, UniProt O75473).
T1 construct: endogenous in cells; host or cells: Lovo colon tumor cells
T1 sequence (O75473 22-907): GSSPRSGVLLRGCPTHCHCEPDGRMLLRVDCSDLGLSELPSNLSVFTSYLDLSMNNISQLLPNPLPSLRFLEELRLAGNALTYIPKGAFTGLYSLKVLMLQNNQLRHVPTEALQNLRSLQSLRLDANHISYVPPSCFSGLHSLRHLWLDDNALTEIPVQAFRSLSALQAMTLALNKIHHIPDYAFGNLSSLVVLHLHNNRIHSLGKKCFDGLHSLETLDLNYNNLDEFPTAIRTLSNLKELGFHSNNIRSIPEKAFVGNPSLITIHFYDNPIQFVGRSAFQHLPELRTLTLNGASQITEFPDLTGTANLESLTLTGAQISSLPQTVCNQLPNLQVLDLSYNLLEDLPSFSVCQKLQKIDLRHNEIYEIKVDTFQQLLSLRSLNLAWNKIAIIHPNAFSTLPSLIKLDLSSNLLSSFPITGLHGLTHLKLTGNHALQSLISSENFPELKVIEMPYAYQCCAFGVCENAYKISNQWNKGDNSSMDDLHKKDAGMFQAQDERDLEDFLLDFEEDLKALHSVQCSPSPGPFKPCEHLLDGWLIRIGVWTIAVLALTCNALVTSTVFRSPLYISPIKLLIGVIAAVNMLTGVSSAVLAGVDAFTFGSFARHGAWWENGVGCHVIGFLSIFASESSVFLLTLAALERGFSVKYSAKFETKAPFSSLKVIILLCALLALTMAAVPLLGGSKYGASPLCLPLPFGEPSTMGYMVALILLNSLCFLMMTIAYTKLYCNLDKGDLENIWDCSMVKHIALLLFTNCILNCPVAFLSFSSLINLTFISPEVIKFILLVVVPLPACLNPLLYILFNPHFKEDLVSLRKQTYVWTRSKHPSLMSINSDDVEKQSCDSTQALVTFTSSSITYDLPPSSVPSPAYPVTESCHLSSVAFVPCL
Briefly: Internalization of GPR49 in Lovo colon tumor cells (confocal). The assay is classed as cell-based. Particulars: 10 ug/ml, 37° C., 60 min. As for the experimental part: Methods: Lovo colon tumor cells were seeded at 50,000 cells per well into 8 well chamber slides (Becton Dickinson Collagen Type 1 coated culture slides, BD BioCoat™#354630) 48 hours prior to staining procedures. Cells were routinely maintained below 20 passages. On day of staining procedures, culture media was discarded from each well and replaced with 500 ul cold incubation buffer (MEM Eagle ATCC #30-2003+1% BSA). Cells were washed 2× with this buffer for 3 min each wash. 250 ul of each mAb (76C12, 78F05 and murine 10A9.2) to be tested was then added to the appropriate well at a concentration of 10 ug/ml, diluted in incubation media, and incubated on ice for 1 hour. A human anti-human-IGF-1R antibody was used as a positive control to compare degree of internalization. Antibody 5A7 (anti-Id mAb), IDEC152 (anti-CD23 IgG1 mAb) and no antibody were used as negative controls. After the 45 minutes incubation on ice, the time zero (1=0′) slide washed 3× with 500 ul of cold wash buffer (PBS+1% BSA+2% Goat serum) for 3 min each wash (slides always kept on ice). The t=0 slide was then fixed with 500 ul […] (diluted with PBS from 16% stock; EMS #15710) for 15 minutes at room temperature. The t=0 slide was then washed again 3× with cold wash buffer for 3 minutes each wash, then left on ice. […]

The results in this text go back to patent publication US10196442B2, “Methods of inhibiting growth of a colon cancer tumor in a subject by administering monoclonal antibodies to G protein-coupled receptor 49 (GPR49)” (Bionomics Inc., priority 2011, dated 2019).

With `CCc1c2c(nc3ccc(OC(=O)N4CCC(N5CCCCC5)CC4)cc13)-c1cc3c(c(=O)n1C2)COC(=O)[C@]3(O)CC` [Irinotecan], the “average size of tumors” value in assay [1] (cells from irinotecan treated tumors) worked out at 1729 mm^3. In assay [1] (cells from pre-treated tumors), the mice with tumors is listed as 5/8. The “tumor inhibition by Irinotecan alone” value in assay [2] was determined as 45%.

In the case of “IDEC152: primatized anti-CD23 IgG1 mAb, negative control”, the “internalization of GPR49” value in assay [3] is “did not bind or internalize”.
